pKi: −log10 of the molar value. Like-named read-outs stand apart in the source and are kept apart here.
Experiments:
animal models of pain = details: animal models of acute thermal, persistent, inflammatory and neuropathic pain; cited from earlier work
human CB2 receptors = target: T1, human CB2 receptors (Homo sapiens, UniProt P34972); experiment: human CB2 radioligand binding assay
T1 construct: expressed in transfected cells; membrane preparation
Procedure: (§1) (i) In Vitro Methods—CB2 and CB1 Radioligand Binding Assays:
(§2) The CB1 and CB2 radioligand binding assays described herein are utilized to ascertain the selectivity of compounds of the present application for binding to CB2 relative to CB1 receptors.
(§3) HEK293 cells stably expressing human CB2 receptors were grown until a confluent monolayer was formed. Briefly, the cells were harvested and homogenized in TE buffer (50 mM Tris-HCl, 1 mM MgCl2, and 1 mM EDTA) using a polytron for 2×10 second bursts in the presence of protease inhibitors, followed by centrifugation at 45,000×g for 20 minutes. The final membrane pellet was re-homogenized in storage buffer (50 mM Tris-HCl, 1 mM MgCl2, and 1 mM EDTA and 10% sucrose) and frozen at −78° C. until used. Saturation binding reactions were initiated by the addition of membrane preparation (protein concentration of 5 μg/well for human CB2) into wells of a deep well plate containing [^3H]CP-55,940 (120 Ci/mmol, a nonselective CB agonist commercially available from Tocris) in assay buffer (50 mM Tris, 2.5 mM EDTA, 5 mM MgCl2, and 0.5 mg/mL fatty acid free BSA, pH 7.4). After 90 min incubation at 30° C., binding reaction was terminated by the addition of 300 μL/well of cold assay buffer followed by rapid vacuum filtration through a UniFilter-96 GF/C filter plates (pre-soaked in 1 mg/mL BSA for 2 hours). The bound activity was counted in a TopCount using Microscint-20. Saturation experiments were conducted with twelve concentrations of [^3H]CP-55,940 ranging from 0.01 to 8 nM. Competition experiments were conducted with 0.5 nM [^3H]CP-55,940 and five concentrations (0.01 nM to 10 μM) of displacing ligands. The addition of 10 μM unlabeled CP-55,940 (Tocris, Ellisville, Mo.) was used to assess nonspecific binding.

rat CB2 receptors = target: T2, rat CB2 receptors (Rattus norvegicus, UniProt Q9QZN9); experiment: rat CB2 radioligand binding assay
T2 construct: expressed in transfected cells; membrane preparation
T2 sequence (Q9QZN9 1-360): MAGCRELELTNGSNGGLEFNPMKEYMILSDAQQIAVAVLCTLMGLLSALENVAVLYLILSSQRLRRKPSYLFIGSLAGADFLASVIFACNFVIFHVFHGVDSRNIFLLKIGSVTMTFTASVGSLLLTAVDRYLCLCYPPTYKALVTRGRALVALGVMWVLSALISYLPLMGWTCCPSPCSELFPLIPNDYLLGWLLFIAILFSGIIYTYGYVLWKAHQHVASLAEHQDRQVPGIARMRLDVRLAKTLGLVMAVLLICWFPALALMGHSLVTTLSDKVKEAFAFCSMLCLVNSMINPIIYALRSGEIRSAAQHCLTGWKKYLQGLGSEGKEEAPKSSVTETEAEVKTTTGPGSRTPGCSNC
Procedure: as §1, §2
as §3, with “expressing rat” for “expressing human”, “of 20” for “of 5”, “for rat” for “for human”, “After 45” for “After 90”, “concentrations of displacing ligands selected from the range of 0.01” for “concentrations (0.01”, “10 μM.” for “10 μM) of displacing ligands.”

rodent models of pain = details: rodent models of neuropathic, incisional, chronic and acute inflammatory pain; cited from earlier work
[1] = tested on: rat formalin model of persistent pain; details: cited from earlier work
microglial activation = details: in vitro; cited from earlier work
[2] = tested on: apolipoprotein E knockout mice; details: cited from earlier work
osteoclast activity = details: cited from earlier work
[3] = tested on: ovariectomy-induced bone loss; details: mice, model for post-menopausal osteoporosis; cited from earlier work
[4] = competition with 0.5 nM [3H]CP-55,940, HEK293 membranes expressing human CB2, read-out: human CB2 binding (Ki)

T1 sequence (P34972 whole entry): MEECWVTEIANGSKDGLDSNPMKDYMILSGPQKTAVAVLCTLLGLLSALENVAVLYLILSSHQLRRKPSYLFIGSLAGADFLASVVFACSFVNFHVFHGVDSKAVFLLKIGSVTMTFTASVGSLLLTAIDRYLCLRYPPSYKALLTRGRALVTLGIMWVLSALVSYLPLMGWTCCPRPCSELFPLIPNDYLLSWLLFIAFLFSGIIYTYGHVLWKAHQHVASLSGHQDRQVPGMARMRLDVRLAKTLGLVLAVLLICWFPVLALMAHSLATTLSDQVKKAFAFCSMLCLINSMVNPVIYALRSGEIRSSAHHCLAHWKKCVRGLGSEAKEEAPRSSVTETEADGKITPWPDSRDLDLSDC

## CN1CCCCC1Cn1cc(C(=O)c2cc([N+](=O)[O-])ccc2I)c2ccccc21 (stereo not shown) [AM-1241]
Animal models of pain
  analgesic efficacy: robust analgesic efficacy

## CCCCn1nc(C(C)(C)C)s/c1=N\C(=O)c1cc(C(F)(F)F)ccc1CN1CC(C(=O)OC)C1 [Example 21, methyl 1-[2-({[(2Z)-3-butyl-5-tert-butyl-1,3,4-thiadiazol-2(3H)-ylidene]amino}carbonyl)-4-(trifluoromethyl)benzyl]azetidine-3-carboxylate]
Human CB2 receptors
  pKi: 8.41
Rat CB2 receptors
  pKi: 8.75

## CCCCn1nc(C(C)(C)C)s/c1=N\C(=O)c1cc(C(F)(F)F)ccc1CN1CC(C(C)(C)O)C1 [Example 22, N-[(2Z)-3-butyl-5-tert-butyl-1,3,4-thiadiazol-2(3H)-ylidene]-2-{[3-(1-hydroxy-1-methylethyl)azetidin-1-yl]methyl}-5-(trifluoromethyl)benzamide]
Human CB2 receptors
  pKi: 8.27
Rat CB2 receptors
  pKi: 8.67

## CCCCn1/c(=N/C(=O)c2cc(C(F)(F)F)ccc2CC(=O)OC(C)(C)C)cc(C(C)(C)C)n1C [Example 23, tert-butyl[2-({[(3E)-2-butyl-5-tert-butyl-1-methyl-1,2-dihydro-3H-pyrazol-3-ylidene]amino}carbonyl)-4-(trifluoromethyl)phenyl]acetate]
Human CB2 receptors; [4]
  pKi: 6.57
Rat CB2 receptors
  pKi: 7.10

## CCCCn1/c(=N/C(=O)c2cc(C(F)(F)F)ccc2CN2CC(O)C2)cc(C(C)(C)C)n1C [Example 24, N-[(3E)-2-butyl-5-tert-butyl-1-methyl-1,2-dihydro-3H-pyrazol-3-ylidene]-2-[(3-hydroxyazetidin-1-yl)methyl]-5-(trifluoromethyl)benzamide]
Human CB2 receptors; [4]
  pKi: 6.93
Rat CB2 receptors
  pKi: 7.06

## CCCCn1/c(=N/C(=O)c2cc(C(F)(F)F)ccc2COCC(C)(C)O)cc(C(C)(C)C)n1C [Example 25, N-[(3E)-2-butyl-5-tert-butyl-1-methyl-1,2-dihydro-3H-pyrazol-3-ylidene]-2-[(2-hydroxy-2-methylpropoxy)methyl]-5-(trifluoromethyl)benzamide]
Human CB2 receptors
  pKi: 7.60
Rat CB2 receptors
  pKi: 7.75

## COc1ccc2c(c1)c(CCN1CCOCC1)c(C)n2C(=O)c1cccc(Cl)c1Cl [GW405833]
Rodent models of pain
  efficacy in pain models: efficacious

## CCCCCCC(C)(C)c1cc(OC)c([C@@H]2C=C(CO)[C@@H]3C[C@H]2C3(C)C)c(OC)c1 [HU-308]
[1]
  antinociceptive response: elicits an antinociceptive response

## CCCC(C)(C)c1ccc2c(c1)OC(C)(C)[C@@H]1CC=C(C)C[C@@H]21 [JWH-133]
Microglial activation
  effect on β-amyloid-induced microglial activation and neurotoxicity: abrogated

## (−)-Δ^9-Tetrahydrocannabinol [THC]
[2]; low doses
  progression of atherosclerotic lesions: slowed the progression

## SR144528
Microglial activation
  blockade of JWH-133 effects on β-amyloid-induced microglial activation and neurotoxicity: blocked
Osteoclast activity
  effect on osteoclast activity: inhibit
[3]
  effect on ovariectomy-induced bone loss: reverse
[2]
  inhibition of THC effects on atherosclerotic lesions: inhibited

Source: US8288428B2, “Compounds as cannabinoid receptor ligands” (Abbott Laboratories, priority 2009, dated 2012)
